Here are results for 31 compounds from US8791107B2, “N-substituted oxazinopteridines and oxazinopteridinones” (Takeda Pharmaceutical Company Limited, priority 2011, dated 2014).

Each structure is given as a SMILES string.

For the assay, the target named is T1, PI3Kδ (Homo sapiens, UniProt O00329).
T1 construct: The protein is full length and co-expressed with untagged PIK3R1; GST; purchased Invitrogen PV5274
T1 sequence (O00329 whole entry): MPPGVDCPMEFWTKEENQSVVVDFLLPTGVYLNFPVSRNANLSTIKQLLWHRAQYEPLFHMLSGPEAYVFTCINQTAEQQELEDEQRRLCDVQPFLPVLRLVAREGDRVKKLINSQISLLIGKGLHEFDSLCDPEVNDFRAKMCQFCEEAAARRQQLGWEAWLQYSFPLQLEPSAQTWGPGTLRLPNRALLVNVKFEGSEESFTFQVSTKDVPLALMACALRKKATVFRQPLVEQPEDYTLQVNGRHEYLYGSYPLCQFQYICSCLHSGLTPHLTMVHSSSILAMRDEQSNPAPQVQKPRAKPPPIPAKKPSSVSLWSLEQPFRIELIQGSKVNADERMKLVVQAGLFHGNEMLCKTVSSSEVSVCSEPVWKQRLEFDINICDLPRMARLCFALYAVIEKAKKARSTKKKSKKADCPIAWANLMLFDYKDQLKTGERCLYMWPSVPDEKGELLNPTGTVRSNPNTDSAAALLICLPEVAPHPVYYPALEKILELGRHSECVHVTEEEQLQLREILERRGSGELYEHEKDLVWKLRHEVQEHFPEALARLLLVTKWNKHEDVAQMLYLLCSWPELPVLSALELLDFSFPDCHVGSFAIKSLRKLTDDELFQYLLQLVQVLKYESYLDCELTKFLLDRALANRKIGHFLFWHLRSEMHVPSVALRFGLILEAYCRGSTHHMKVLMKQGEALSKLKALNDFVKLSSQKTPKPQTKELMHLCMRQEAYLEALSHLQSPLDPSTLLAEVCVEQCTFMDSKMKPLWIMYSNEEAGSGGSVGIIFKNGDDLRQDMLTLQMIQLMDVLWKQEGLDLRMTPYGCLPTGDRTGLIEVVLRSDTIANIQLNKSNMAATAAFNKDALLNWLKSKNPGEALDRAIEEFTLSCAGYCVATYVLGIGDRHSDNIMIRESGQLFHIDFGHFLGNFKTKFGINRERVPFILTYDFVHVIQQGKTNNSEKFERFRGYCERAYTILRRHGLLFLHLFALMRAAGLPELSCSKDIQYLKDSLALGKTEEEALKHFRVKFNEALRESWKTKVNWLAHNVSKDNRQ
T1 sequence (P27986 whole entry partner): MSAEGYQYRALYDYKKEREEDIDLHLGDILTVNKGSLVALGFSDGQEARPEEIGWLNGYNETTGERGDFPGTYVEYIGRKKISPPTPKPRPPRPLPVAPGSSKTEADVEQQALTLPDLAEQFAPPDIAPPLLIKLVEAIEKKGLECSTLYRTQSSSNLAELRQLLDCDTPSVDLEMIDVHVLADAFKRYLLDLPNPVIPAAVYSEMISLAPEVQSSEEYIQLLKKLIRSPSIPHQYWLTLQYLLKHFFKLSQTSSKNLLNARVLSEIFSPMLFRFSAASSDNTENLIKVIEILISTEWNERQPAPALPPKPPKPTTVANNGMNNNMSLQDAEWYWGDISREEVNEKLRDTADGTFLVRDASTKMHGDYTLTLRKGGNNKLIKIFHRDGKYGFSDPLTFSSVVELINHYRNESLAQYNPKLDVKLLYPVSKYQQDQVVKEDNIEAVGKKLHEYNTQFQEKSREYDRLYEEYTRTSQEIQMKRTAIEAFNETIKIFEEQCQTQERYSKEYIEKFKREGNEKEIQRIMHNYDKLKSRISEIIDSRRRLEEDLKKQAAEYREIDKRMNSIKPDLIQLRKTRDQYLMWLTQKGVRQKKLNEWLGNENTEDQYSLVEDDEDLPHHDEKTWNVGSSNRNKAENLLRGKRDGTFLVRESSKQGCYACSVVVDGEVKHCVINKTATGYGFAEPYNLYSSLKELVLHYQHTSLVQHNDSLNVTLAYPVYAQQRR
Kind of assay: PI3Kδ inhibition, modified PIK3CD Adapta TR-FRET assay. It counts as biochemical. The settings on record: recombinant GST-tagged full length PIK3CD co-expressed with PIK3R1 (p85α); 2 μM ATP, 50 μM PIP2; read-out: PI3Kδ Inhibition (pIC50) (converted). An outline of the steps:
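Full-length GST-PIK3CD co-expressed with p85α was run in 50 mM HEPES pH 7.5, 3 mM MgCl2, 1 mM EGTA, 100 mM NaCl, 0.03% CHAPS, 2 mM DTT, 1% DMSO, with 12-point compound titrations. Reactions at room temperature were started with solution containing 2 μM ATP and 50 μM PIP2. ADP was detected by Adapta TR-FRET (620 nm-ratioed).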
For orientation: Time-resolved FRET reads energy transfer from a long-lived donor to a nearby acceptor.
On to `CNC(=O)Nc1ccc(-c2ncc3c(n2)N2CCOCC2CN3Cc2ccc(C)cc2)cc1` (stereo not shown) [Example 62, 1-methyl-3-(4-(5-(4-methylbenzyl)-5,6,6a,7,9,10-hexahydro-[1,4]oxazino[3,4-h]pteridin-2-yl)phenyl)urea], for which the IC50 is 794 nM.

As to `CNC(=O)Nc1ccc(-c2ncc3c(n2)N2CCOCC2CN3Cc2ccc(Cl)cc2)cc1` (stereo not shown) [Example 63, 1-(4-(5-(4-chlorobenzyl)-5,6,6a,7,9,10-hexahydro-[1,4]oxazino[3,4-h]pteridin-2-yl)phenyl)-3-methylurea], the IC50 is 2510 nM.

For the compound `CNC(=O)Nc1ccc(-c2ncc3c(n2)N2CCOCC2CN3CC2CC2)cc1` (stereo not shown) [Example 64, 1-(4-(5-(cyclopropylmethyl)-5,6,6a,7,9,10-hexahydro-[1,4]oxazino[3,4-h]pteridin-2-yl)phenyl)-3-methylurea], the IC50 is 39.8 nM.

In the case of `CS(=O)(=O)c1ccc(CN2C[C@@H]3COCCN3c3nc(-n4c(C(F)F)nc5ccccc54)ncc32)cc1` [Example 67, (R)-2-(2-(difluoromethyl)-1H-benzo[d]imidazol-1-yl)-5-(4-(methylsulfonyl)benzyl)-5,6,6a,7,9,10-hexahydro-[1,4]oxazino[3,4-h]pteridine], the IC50 is 5.01 nM.

In the case of `CC(C)(C)OC(=O)CN1C[C@@H]2COCCN2c2nc(-c3cccc4[nH]ccc34)ncc21` [Example 68, (R)-tert-butyl 2-(2-(1H-indol-4-yl)-6a,7,9,10-tetrahydro-[1,4]oxazino[3,4-h]pteridin-5(6H)-yl)acetate], the IC50 was 50.1 nM.

With `O=C(O)CN1C[C@@H]2COCCN2c2nc(-c3cccc4[nH]ccc34)ncc21` [Example 69, (R)-2-(2-(1H-indol-4-yl)-6a,7,9,10-tetrahydro-[1,4]oxazino[3,4-h]pteridin-5(6H)-yl)acetic acid], the IC50 was 2510 nM.

`O=C(CN1C[C@@H]2COCCN2c2nc(-c3cccc4[nH]ccc34)ncc21)NCC1CC1` [Example 70, (R)-2-(2-(1H-indol-4-yl)-6a,7,9,10-tetrahydro-[1,4]oxazino[3,4-h]pteridin-5(6H)-yl)-N-(cyclopropylmethyl)acetamide]: the IC50 is 200 nM.

As to `CC(C)(O)CNC(=O)CN1C[C@@H]2COCCN2c2nc(-c3cccc4[nH]ccc34)ncc21` [Example 71, (R)-2-(2-(1H-indol-4-yl)-6a,7,9,10-tetrahydro-[1,4]oxazino[3,4-h]pteridin-5(6H)-yl)-N-(2-hydroxy-2-methylpropyl)acetamide], the IC50 is 398 nM.

As to `O=C(CN1C[C@@H]2COCCN2c2nc(-c3cccc4[nH]ccc34)ncc21)NCc1cc[nH]n1` [Example 72, (R)-2-(2-(1H-indol-4-yl)-6a,7,9,10-tetrahydro-[1,4]oxazino[3,4-h]pteridin-5(6H)-yl)-N-((1H-pyrazol-3-yl)methyl)acetamide], the IC50 was 126 nM.

Take `O=C(CN1C[C@@H]2COCCN2c2nc(-c3cccc4[nH]ccc34)ncc21)NCC1CCOCC1` [Example 73, (R)-2-(2-(1H-indol-4-yl)-6a,7,9,10-tetrahydro-[1,4]oxazino[3,4-h]pteridin-5(6H)-yl)-N-((tetrahydro-2H-pyran-4-yl)methyl)acetamide]: the IC50 was 20 nM.

For `NC(=O)c1ccccc1CN1CC2COCCN2c2nc(-c3cccc4[nH]ccc34)ncc21` (stereo not shown) [Example 74, 2-((2-(1H-indol-4-yl)-6a,7,9,10-tetrahydro-[1,4]oxazino[3,4-h]pteridin-5(6H)-yl)methyl)benzamide], the IC50 was 63.1 nM.

For `NC(=O)c1ccc(F)cc1CN1CC2COCCN2c2nc(-c3cccc4[nH]ccc34)ncc21` (stereo not shown) [Example 75, 2-((2-(1H-indol-4-yl)-6a,7,9,10-tetrahydro-[1,4]oxazino[3,4-h]pteridin-5(6H)-yl)methyl)-4-fluorobenzamide], the IC50 was 316 nM.

In the case of `NC(=O)c1cccc(CN2CC3COCCN3c3nc(-c4cccc5[nH]ccc45)ncc32)c1` (stereo not shown) [Example 76, 3-((2-(1H-indol-4-yl)-6a,7,9,10-tetrahydro-[1,4]oxazino[3,4-h]pteridin-5(6H)-yl)methyl)benzamide], the IC50 is 31.6 nM.

For `NC(=O)c1ccc(F)c(CN2CC3COCCN3c3nc(-c4cccc5[nH]ccc45)ncc32)c1` (stereo not shown) [Example 77, 3-((2-(1H-indol-4-yl)-6a,7,9,10-tetrahydro-[1,4]oxazino[3,4-h]pteridin-5(6H)-yl)methyl)-4-fluorobenzamide], the IC50 is 50.1 nM.

In the case of `NC(=O)c1ccc(CN2CC3COCCN3c3nc(-c4cccc5[nH]ccc45)ncc32)cc1` (stereo not shown) [Example 78, 4-((2-(1H-indol-4-yl)-6a,7,9,10-tetrahydro-[1,4]oxazino[3,4-h]pteridin-5(6H)-yl)methyl)benzamide], the IC50 was 20 nM.

As to `COc1cc(C(N)=O)ccc1CN1CC2COCCN2c2nc(-c3cccc4[nH]ccc34)ncc21` (stereo not shown) [Example 79, 4-((2-(1H-indol-4-yl)-6a,7,9,10-tetrahydro-[1,4]oxazino[3,4-h]pteridin-5(6H)-yl)methyl)-3-methoxybenzamide], the IC50 was 50.1 nM.

On to `Cc1cccc(CN2CC3COCCN3c3nc(-c4cccc5[nH]ccc45)ncc32)n1` (stereo not shown) [Example 80], for which the IC50 is 63.1 nM.

Take `c1cc(-c2ncc3c(n2)N2CCOCC2CN3Cc2nnc(C3CC3)o2)c2cc[nH]c2c1` (stereo not shown) [Example 81, 5-((5-cyclopropyl-1,3,4-oxadiazol-2-yl)methyl)-2-(1H-indol-4-yl)-5,6,6a,7,9,10-hexahydro-[1,4]oxazino[3,4-h]pteridine]: the IC50 was 15.8 nM.

With `O=C(CN1C[C@@H]2COCCN2c2nc(-c3cccc(CO)c3)ncc21)NCC1CCOCC1` [Example 82, (R)-2-(2-(3-(hydroxymethyl)phenyl)-6a,7,9,10-tetrahydro-[1,4]oxazino[3,4-h]pteridin-5(6H)-yl)-N-((tetrahydro-2H-pyran-4-yl)methyl)acetamide], the IC50 is 12.6 nM.

In the case of `CC(C)(O)c1cccc(-c2ncc3c(n2)N2CCOC[C@H]2CN3CC(=O)NCC2CCOCC2)c1` [Example 83, (R)-2-(2-(3-(2-hydroxypropan-2-yl)phenyl)-6a,7,9,10-tetrahydro-[1,4]oxazino[3,4-h]pteridin-5(6H)-yl)-N-((tetrahydro-2H-pyran-4-yl)methyl)acetamide], the IC50 was 1000 nM.

Consider `CNC(=O)Nc1ccc(-c2ncc3c(n2)N2CCOCC2C(=O)N3[C@H](C)c2ccc(Cl)cc2)cc1` (stereo partly drawn) [Example 84, 1-(4-(5-((R)-1-(4-chlorophenyl)ethyl)-6-oxo-5,6,6a,7,9,10-hexahydro-[1,4]oxazino[3,4-h]pteridin-2-yl)phenyl)-3-methylurea], for which the IC50 is 126 nM.

For `CNC(=O)Nc1ccc(-c2ncc3c(n2)N2CCOCC2C(=O)N3Cc2ccc(C(=O)OC)cc2)cc1` (stereo not shown) [Example 88, methyl 4-((2-(4-(3-methylureido)phenyl)-6-oxo-6a,7,9,10-tetrahydro-[1,4]oxazino[3,4-h]pteridin-5(6H)-yl)methyl)benzoate], the IC50 was 6.31 nM.

For `CNC(=O)Nc1ccc(-c2ncc3c(n2)N2CCOCC2C(=O)N3Cc2ccc(Cl)cc2)cc1` (stereo not shown) [Example 89, 1-(4-(5-(4-chlorobenzyl)-6-oxo-5,6,6a,7,9,10-hexahydro-[1,4]oxazino[3,4-h]pteridin-2-yl)phenyl)-3-methylurea], the IC50 is 63.1 nM.

Turning to `CNC(=O)Nc1ccc(-c2ncc3c(n2)N2CCOCC2C(=O)N3Cc2cccc(-n3cccc3)c2)cc1` (stereo not shown) [Example 90, 1-(4-(5-(3-(1H-pyrrol-1-yl)benzyl)-6-oxo-5,6,6a,7,9,10-hexahydro-[1,4]oxazino[3,4-h]pteridin-2-yl)phenyl)-3-methylurea], the IC50 is 5.01 nM.

As for `CNC(=O)Nc1ccc(-c2ncc3c(n2)N2CCOCC2C(=O)N3Cc2ccc(S(C)(=O)=O)cc2)cc1` (stereo not shown) [Example 91, 1-methyl-3-(4-(5-(4-(methylsulfonyl)benzyl)-6-oxo-5,6,6a,7,9,10-hexahydro-[1,4]oxazino[3,4-h]pteridin-2-yl)phenyl)urea], the IC50 was 0.794 nM.

`CNC(=O)Nc1ccc(-c2ncc3c(n2)N2CCOCC2C(=O)N3Cc2ccc(-n3cncn3)cc2)cc1` (stereo not shown) [Example 92, 1-(4-(5-(4-(1H-1,2,4-triazol-1-yl)benzyl)-6-oxo-5,6,6a,7,9,10-hexahydro-[1,4]oxazino[3,4-h]pteridin-2-yl)phenyl)-3-methylurea]: the IC50 was 2 nM.

As to `CNC(=O)Nc1ccc(-c2ncc3c(n2)N2CCOCC2C(=O)N3CC2CC2(F)F)cc1` (stereo not shown) [Example 93, 1-(4-(5-((2,2-difluorocyclopropyl)methyl)-6-oxo-5,6,6a,7,9,10-hexahydro-[1,4]oxazino[3,4-h]pteridin-2-yl)phenyl)-3-methylurea], the IC50 was 5.01 nM.

For the compound `CNC(=O)Nc1ccc(-c2ncc3c(n2)N2CCOCC2C(=O)N3CCc2c(C)n[nH]c2C)cc1` (stereo not shown) [Example 94, 1-(4-(5-(2-(3,5-dimethyl-1H-pyrazol-4-yl)ethyl)-6-oxo-5,6,6a,7,9,10-hexahydro-[1,4]oxazino[3,4-h]pteridin-2-yl)phenyl)-3-methylurea], the IC50 is 2.51 nM.

`CNC(=O)Nc1ccc(-c2ncc3c(n2)N2CCOCC2C(=O)N3Cc2ccc(S(C)(=O)=O)cc2Cl)cc1` (stereo not shown) [Example 95, 1-(4-(5-(2-chloro-4-(methylsulfonyl)benzyl)-6-oxo-5,6,6a,7,9,10-hexahydro-[1,4]oxazino[3,4-h]pteridin-2-yl)phenyl)-3-methylurea]: the IC50 was 0.794 nM.

Take `O=C1C2COCCN2c2nc(-c3cn[nH]c3)ncc2N1[C@H]1CCc2ccccc21` (stereo partly drawn) [Example 96, 5-((S)-2,3-dihydro-1H-inden-1-yl)-2-(1H-pyrazol-4-yl)-6a,7,9,10-tetrahydro-[1,4]oxazino[3,4-h]pteridin-6(5H)-one]: the IC50 is 631 nM.

On to `CC(C)NS(=O)(=O)c1cccc(-c2ncc3c(n2)N2CCOCC2C(=O)N3Cc2ccc(S(C)(=O)=O)cc2)c1` (stereo not shown) [Example 98, N-isopropyl-3-(5-(4-(methylsulfonyl)benzyl)-6-oxo-5,6,6a,7,9,10-hexahydro-[1,4]oxazino[3,4-h]pteridin-2-yl)benzenesulfonamide], for which the IC50 was 6310 nM.
